Test results: PubChem BioAssay (NCI)
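Method: 48-hour compound exposure of cells in 96-well plates, five concentrations, linear interpolation of endpoints. Definition used: TGI = concentration required for complete inhibition of growth.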

Assays:
Test in all cases: NCI tumour cell line growth inhibition, 48 h
ACHN renal = test system: ACHN renal
OVCAR-4 ovarian = test system: OVCAR-4 ovarian
786-0 renal = test system: 786-0 renal
MDA-N = test system: MDA-N
MDA-MB-231 breast = test system: MDA-MB-231 breast
MCF7 breast = test system: MCF7 breast
DU-145 prostate = test system: DU-145 prostate
SNB-75 CNS = test system: SNB-75 CNS
OVCAR-5 ovarian = test system: OVCAR-5 ovarian
RPMI-8226 leukemia = test system: RPMI-8226 leukemia
CCRF-CEM leukemia = test system: CCRF-CEM leukemia
IGROV1 ovarian = test system: IGROV1 ovarian
EKVX NSCLC = test system: EKVX NSCLC
NCI-H226 lung = test system: NCI-H226 lung
NCI/ADR-RES ovarian = test system: NCI/ADR-RES ovarian
HT29 colon = test system: HT29 colon
PC-3 prostate = test system: PC-3 prostate
HS 578T breast = test system: HS 578T breast
UACC-257 melanoma = test system: UACC-257 melanoma
T-47D breast = test system: T-47D breast
U251 CNS = test system: U251 CNS
SN12C renal = test system: SN12C renal
BT-549 breast = test system: BT-549 breast
MDA-MB-435 = test system: MDA-MB-435
SK-MEL-28 melanoma = test system: SK-MEL-28 melanoma
MOLT-4 leukemia = test system: MOLT-4 leukemia
HCC-2998 colon = test system: HCC-2998 colon
M14 melanoma = test system: M14 melanoma
HOP-62 NSCLC = test system: HOP-62 NSCLC
HCT-116 colon = test system: HCT-116 colon
SR leukemia = test system: SR leukemia
SF-295 CNS = test system: SF-295 CNS
SK-MEL-5 melanoma = test system: SK-MEL-5 melanoma
CAKI-1 renal = test system: CAKI-1 renal
A549 NSCLC = test system: A549 NSCLC
K-562 leukemia = test system: K-562 leukemia
RXF 393 renal = test system: RXF 393 renal
KM12 colon = test system: KM12 colon
UO-31 renal = test system: UO-31 renal
NCI-H522 lung = test system: NCI-H522 lung
NCI-H23 lung = test system: NCI-H23 lung
SK-MEL-2 melanoma = test system: SK-MEL-2 melanoma
SK-OV-3 ovarian = test system: SK-OV-3 ovarian
OVCAR-8 ovarian = test system: OVCAR-8 ovarian
SNB-19 CNS = test system: SNB-19 CNS
LOX IMVI melanoma = test system: LOX IMVI melanoma
COLO 205 colon = test system: COLO 205 colon
NCI-H460 lung = test system: NCI-H460 lung
TK-10 renal = test system: TK-10 renal
MALME-3M melanoma = test system: MALME-3M melanoma
SW-620 colon = test system: SW-620 colon
HCT-15 colon = test system: HCT-15 colon
SF-539 CNS = test system: SF-539 CNS
HL-60(TB) leukemia = test system: HL-60(TB) leukemia
SF-268 CNS = test system: SF-268 CNS
UACC-62 melanoma = test system: UACC-62 melanoma
OVCAR-3 ovarian = test system: OVCAR-3 ovarian

Measured: TGI

NC1CSc2ccccc2NC1=O (stereo not given)
> 100 µM: all assays above

CN(C)c1ccc(/C=C2\Oc3ccccc3C2=O)cc1
not listed: OVCAR-5 ovarian | SK-MEL-2 melanoma | LOX IMVI melanoma | MALME-3M melanoma
> 100 µM: all other assays above
